Here are results for 21 compounds from ChEMBL document CHEMBL4602617, “Discovery and optimization of heteroaryl piperazines as potent and selective PI3Kδ inhibitors” (Bioorg Med Chem Lett, 2020).

The species named for data set [1] is Homo sapiens. The experiment in a line: Selectivity index, ratio IC50 for inhibition of recombinant human full-length N-terminal His6-tagged p110beta/untagged full-length p85alpha expressed in baculovirus infected Sf21 cells to ratio IC50 for inhibition of recombinant human full-length N-terminal GST-tagged p110delta/untagged full-length p85alpha expressed in baculovirus infected Sf21 cells.

The species entered for data set [2] is Homo sapiens. The experiment in a line: Selectivity index, ratio IC50 for inhibition of recombinant human N-terminal His6-tagged full-length p120gamma expressed in Sf21 insect cells to ratio IC50 for inhibition of recombinant human full-length N-terminal GST-tagged p110delta/untagged full-length p85alpha expressed in baculovirus infected Sf21 cells.
For data set [3], the target named is PI3-kinase p110-delta/p85-alpha (Homo sapiens, UniProt O00329). The experiment in a line: Inhibition of recombinant human full-length N-terminal GST-tagged p110delta/untagged full-length p85alpha expressed in baculovirus infected Sf21 cells using PIP2 as substrate preincubated for 15 mins followed by substrate addition and measured after 1 hr by HTRF assay. In general terms: TR-FRET usually uses a lanthanide donor and a delayed reading to cut background.
Chain of PI3-kinase p110-delta/p85-alpha (P27986 whole entry, one chain of several): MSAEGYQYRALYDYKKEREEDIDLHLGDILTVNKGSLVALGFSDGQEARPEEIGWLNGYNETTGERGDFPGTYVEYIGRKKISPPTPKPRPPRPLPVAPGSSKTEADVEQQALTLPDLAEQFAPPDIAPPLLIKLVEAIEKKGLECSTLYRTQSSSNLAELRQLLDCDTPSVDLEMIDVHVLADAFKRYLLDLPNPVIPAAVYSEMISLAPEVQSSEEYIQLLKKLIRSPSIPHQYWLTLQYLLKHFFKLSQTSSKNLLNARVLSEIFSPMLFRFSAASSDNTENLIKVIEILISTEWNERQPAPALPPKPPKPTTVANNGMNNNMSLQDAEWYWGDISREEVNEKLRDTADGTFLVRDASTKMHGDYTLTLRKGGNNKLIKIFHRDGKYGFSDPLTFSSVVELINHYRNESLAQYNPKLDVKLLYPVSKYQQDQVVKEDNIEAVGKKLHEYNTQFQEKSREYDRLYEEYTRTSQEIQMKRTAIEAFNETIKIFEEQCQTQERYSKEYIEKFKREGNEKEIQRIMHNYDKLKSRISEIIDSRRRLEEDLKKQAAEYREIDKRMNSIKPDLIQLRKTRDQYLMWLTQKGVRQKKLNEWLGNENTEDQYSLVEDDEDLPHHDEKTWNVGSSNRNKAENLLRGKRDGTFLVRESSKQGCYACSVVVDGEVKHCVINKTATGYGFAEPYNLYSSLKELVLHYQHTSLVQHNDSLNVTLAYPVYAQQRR

The species entered for data set [4] is Homo sapiens. The experiment in a line: Selectivity index, ratio IC50 for inhibition of recombinant human full-length N-terminal His6-tagged p110alpha/untagged full-length p85alpha expressed in baculovirus infected Sf21 cells to ratio IC50 for inhibition of recombinant human full-length N-terminal GST-tagged p110delta/untagged full-length p85alpha expressed in baculovirus infected Sf21 cells.

The nature of data set [5]: Clearance in human liver microsomes. The class given is ADME, Microsome. Particulars: read-out: CLH. (In general: Liver microsomes are vesicles of endoplasmic reticulum, rich in cytochrome P450 enzymes.)
Data set [6] deals with T1, Phosphatidylinositol 4,5-bisphosphate 3-kinase catalytic subunit delta isoform (Homo sapiens, UniProt O00329).
T1 sequence (O00329 whole entry): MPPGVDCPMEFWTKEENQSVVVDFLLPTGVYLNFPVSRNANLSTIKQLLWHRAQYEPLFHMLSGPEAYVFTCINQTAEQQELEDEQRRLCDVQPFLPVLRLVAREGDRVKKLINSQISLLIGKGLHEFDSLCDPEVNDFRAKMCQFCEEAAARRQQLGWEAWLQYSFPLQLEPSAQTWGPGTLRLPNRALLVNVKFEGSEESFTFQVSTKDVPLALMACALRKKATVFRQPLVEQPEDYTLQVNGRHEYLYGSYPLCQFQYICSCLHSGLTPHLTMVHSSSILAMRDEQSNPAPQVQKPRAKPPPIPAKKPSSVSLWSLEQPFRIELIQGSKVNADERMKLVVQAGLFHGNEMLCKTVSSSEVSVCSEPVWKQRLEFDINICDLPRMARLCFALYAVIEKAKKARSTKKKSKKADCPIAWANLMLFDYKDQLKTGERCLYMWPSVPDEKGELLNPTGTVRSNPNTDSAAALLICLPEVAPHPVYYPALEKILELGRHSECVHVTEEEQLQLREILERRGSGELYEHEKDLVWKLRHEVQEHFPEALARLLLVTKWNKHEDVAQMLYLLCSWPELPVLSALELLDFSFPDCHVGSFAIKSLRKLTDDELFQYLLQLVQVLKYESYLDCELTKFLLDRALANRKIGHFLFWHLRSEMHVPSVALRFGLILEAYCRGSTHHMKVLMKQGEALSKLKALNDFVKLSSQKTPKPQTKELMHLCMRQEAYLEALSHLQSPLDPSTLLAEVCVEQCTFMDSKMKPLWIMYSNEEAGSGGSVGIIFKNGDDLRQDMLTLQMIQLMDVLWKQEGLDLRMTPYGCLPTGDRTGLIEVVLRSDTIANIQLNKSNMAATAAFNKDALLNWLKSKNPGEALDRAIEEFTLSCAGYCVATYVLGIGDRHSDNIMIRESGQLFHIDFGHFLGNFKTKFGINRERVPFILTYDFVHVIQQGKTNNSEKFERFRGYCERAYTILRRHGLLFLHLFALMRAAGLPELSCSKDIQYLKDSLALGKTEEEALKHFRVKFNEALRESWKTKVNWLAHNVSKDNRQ
The experiment in a line: Inhibition of PI3K delta in human whole blood assessed as inhibition of anti-IgE-stimulated CysLt release in basophils preincubated for 30 mins followed by anti-IgE stimulation and measured after 20 mins. It counts as tissue-based.

Data set [7] in a line: Distribution coefficient, logD of compound by HPLC analysis. The class given is physicochemical. As to conditions: octanol/water.
Data set [8] is described as follows: Clearance in rat liver microsomes. The class given is ADME, Microsome. Particulars: read-out: CLH.

Structures are written as SMILES.

Turning to `C[C@@H]1CN(c2nc(-c3cnn(C)c3)ncc2C#N)CCN1C(=O)C1(C)CC1`, the Ratio IC50 in data set [1], in data set [2] and in data set [4] was more than 12 throughout. Moreover, the IC50 (usually the concentration needed to halve the response being measured) in data set [3] was 1.05 µM; in data set [6] it was 5.71 µM. The CLint scaled is less than 16 mL/min/kg in data set [5] and less than 36 mL/min/kg in data set [8]. In addition, in data set [7], the logD (as a rule, the decadic logarithm of the distribution of all forms, ionised or not, between an organic phase and buffer at a given pH) was 1.7.

Take `C[C@@H]1CN(c2ncc(C#N)c(-c3cnn(C)c3)n2)CCN1C(=O)C1CC1`: the Ratio IC50 in data set [1] was more than 583; in data set [2], 764; in data set [4], more than 583. Further, the half-maximal inhibitory concentration (IC50) worked out at 0.021 µM in data set [3] and 0.764 µM in data set [6]. The CLint scaled was less than 16 mL/min/kg in data set [5] and 39 mL/min/kg in data set [8]. The same compound showed a logD in data set [7] of 2.

For `N#Cc1cnc(N2Cc3cn[nH]c3C2)nc1N1C[C@@H]2C[C@H]1CN2c1cccc(F)c1`, the Ratio IC50 in data set [1], in data set [2] and in data set [4] was more than 146 in each case. Besides, the IC50 in data set [3] was 0.086 µM. Also, the logD in data set [7] turned out to be 2.9.

In the case of `C[C@@H]1CN(c2nc(-c3cnn(C)c3)ncc2C#N)CCN1c1cccc(F)c1`, the Ratio IC50 in data set [1], in data set [2] and in data set [4] was more than 76 each time. Further, the IC50 in data set [3] came out at 0.165 µM. In data set [7], this compound displayed a logD of 3.3.

For `Cn1cc(-c2ncc(C#N)c(N3C[C@@H]4C[C@H]3CN4CC3CC3)n2)cn1`, the IC50 came to 1.43 µM in data set [3] and 6.97 µM in data set [6]. Further, the CLint scaled was less than 16 mL/min/kg in data set [5] and 158 mL/min/kg in data set [8]. In data set [7], this compound gave a logD of 1.5.

For the compound `Cn1cc(-c2ncc(C#N)c(N3CCN(c4cccc(F)c4)CC3)n2)cn1`, the Ratio IC50 in data set [1], in data set [2] and in data set [4] was more than 8 each time. In data set [3], the IC50 was 1.6 µM. In data set [7], this compound gave a logD of 3.2.

With `C[C@@H]1C[C@H]1C(=O)N1CCN(c2nc(-c3cnn(C)c3)ncc2C#N)C[C@H]1C`, the Ratio IC50 in data set [1], in data set [2] and in data set [4] was more than 394 in each case. The values for the IC50 in data set [3] and in data set [6] were 0.032 µM and 0.187 µM, respectively. The CLint scaled is less than 16 mL/min/kg in data set [5] and 54 mL/min/kg in data set [8]. Moreover, the logD in data set [7] was 1.9.

Take `Cn1cc(-c2ncc(C#N)c(N3C[C@@H]4C[C@H]3CN4S(=O)(=O)C3CC3)n2)cn1`: the Ratio IC50 in data set [1] was 10; in data set [2], 10; in data set [4] it was more than 10. In addition, the IC50 in data set [3] was 1.19 µM; in data set [6], 4.12 µM. The CLint scaled in data set [5] is less than 16 mL/min/kg; in data set [8], less than 36 mL/min/kg. The same compound had a logD in data set [7] of 1.6.

Turning to `CCC(=O)N1CCN(c2nc(-c3cnn(C)c3)ncc2C#N)C[C@H]1C`, the Ratio IC50 in data set [1], in data set [2] and in data set [4] was more than 48 each time. The IC50 turned out to be 0.263 µM in data set [3] and 2.32 µM in data set [6]. The CLint scaled is less than 16 mL/min/kg in data set [5] and less than 36 mL/min/kg in data set [8]. Besides, the logD in data set [7] was found to be 1.4.

As to `Cn1cc(-c2ncc(C#N)c(N3CC4CCC(C3)N4c3cccc(F)c3)n2)cn1`, the Ratio IC50 in data set [1], in data set [2] and in data set [4] was more than 12 each time. Also, the IC50 in data set [3] turned out to be 1.03 µM. Moreover, the CLint scaled in data set [5] turned out to be 62 mL/min/kg; in data set [8] it was 529 mL/min/kg. In data set [7], this compound gave a logD of 3.3.

In the case of `N#Cc1cnc(-c2ccnc3[nH]ccc23)nc1N1C[C@@H]2C[C@H]1CN2c1cccc(F)c1`, the results for the Ratio IC50 in data set [1], in data set [2] and in data set [4] were 93, 225 and 76, respectively. Moreover, in data set [3], the IC50 worked out at 0.056 µM. In addition, in data set [7], the logD came to 3.4.

Consider `C[C@@H]1CN(c2nc(-c3cnn(C)c3)cnc2C#N)CCN1C(=O)C1CC1`, for which the Ratio IC50 in data set [1], in data set [2] and in data set [4] was more than 67 throughout. Besides, the IC50 in data set [3] was found to be 0.185 µM; in data set [6], 0.737 µM. In addition, the CLint scaled in data set [5] stood at 50 mL/min/kg; in data set [8], 39 mL/min/kg. The compound further returned a logD in data set [7] of 1.9.

On to `Cn1cc(-c2ncc(C#N)c(N3CCN(c4cccc(F)c4)C(C)(C)C3)n2)cn1`, for which the Ratio IC50 in data set [1], in data set [2] and in data set [4] was more than 8 throughout. In addition, the IC50 in data set [3] was 1.52 µM. Besides, the CLint scaled in data set [5] stood at 91 mL/min/kg; in data set [8], 2050 mL/min/kg. In data set [7], this compound displayed a logD of 3.6.

Take `N#Cc1cnc(-c2cnc3[nH]ccc3c2)nc1N1C[C@@H]2C[C@H]1CN2c1cccc(F)c1`: the Ratio IC50 in data set [1] was more than 14; in data set [2], more than 14; in data set [4], 8. Besides, in data set [3], the IC50 stood at 0.918 µM.

As to `CCNC(=O)N1C[C@@H]2C[C@H]1CN2c1nc(-c2cnn(C)c2)ncc1C#N`, the Ratio IC50 was 6 in data set [1], 6 in data set [2] and more than 6 in data set [4]. For the same compound, the IC50 in data set [3] came to 2.19 µM. Moreover, the logD in data set [7] is 0.8.

Take `N#Cc1cnc(-c2ccccc2)nc1N1C[C@@H]2C[C@H]1CN2c1cccc(F)c1`: in data set [3], the IC50 is more than 10 µM. The same compound came in with a logD in data set [7] of 4.5.

In the case of `N#Cc1cnc(-c2cccnc2)nc1N1C[C@@H]2C[C@H]1CN2c1cccc(Cl)c1`, the values for the Ratio IC50 in data set [1], in data set [2] and in data set [4] were 14, more than 105 and 62, respectively. Moreover, the IC50 in data set [3] turned out to be 0.474 µM. In data set [7], the logD was 3.82.

Turning to `C[C@@H]1CN(c2nc(-c3cnn(C)c3)ncc2C#N)CCN1C(=O)C1CC1`, the Ratio IC50 in data set [1], in data set [2] and in data set [4] was more than 116 throughout. Moreover, the figures for the IC50 in data set [3] and in data set [6] were 0.108 µM and 0.329 µM, respectively. Further, the CLint scaled in data set [5] was 21 mL/min/kg; in data set [8], less than 36 mL/min/kg. In data set [7], this compound showed a pH-dependent lipophilicity (logD) of 1.5.

Regarding `C[C@@H]1CN(c2cnc(C#N)c(-c3cnn(C)c3)n2)CCN1C(=O)C1CC1`, the Ratio IC50 in data set [1], in data set [2] and in data set [4] was more than 384 in each case. The IC50 in data set [3] worked out at 0.033 µM; in data set [6] it was 0.219 µM. Further, the CLint scaled is less than 16 mL/min/kg in data set [5] and less than 36 mL/min/kg in data set [8]. For the same compound, the logD in data set [7] came out at 1.8.

Turning to `C[C@@H]1CN(c2nc(-c3cnn(C)c3)ncc2C#N)CCN1C(=O)C1CCC1`, the Ratio IC50 in data set [1], in data set [2] and in data set [4] was more than 33 throughout. The IC50 was 0.374 µM in data set [3] and 1.56 µM in data set [6]. The CLint scaled is less than 16 mL/min/kg in data set [5] and less than 36 mL/min/kg in data set [8]. This compound returned a log distribution coefficient (logD) in data set [7] of 2.

Consider `CC1CC1C(=O)N1CCN(c2nc(-c3cnn(C)c3)ncc2C#N)C[C@H]1C` (mixture of isomers), for which the Ratio IC50 in data set [1] was more than 159; in data set [2], 159; in data set [4], more than 159. The IC50 came out at 0.079 µM in data set [3] and 0.557 µM in data set [6]. The values for the CLint scaled in data set [5] and in data set [8] were less than 16 mL/min/kg and less than 36 mL/min/kg, respectively. For the same compound, the logD in data set [7] is 2.
